Laboratory results: patent US8791132B2, “Compounds and methods for treatment of hypertension” (Medivation Technologies, Inc., priority 2011, dated 2014)
Where two headings read alike, the source gives them in different places.

Key:
[1] = molecular target: T1, rat adrenergic α1B receptor (Rattus norvegicus, UniProt P15823); experiment: Radioligand binding, adrenergic α1B ([3H]Prazosin); conditions: for Percentage inhibition of ligand binding, Adrenergic α1B (0.1 μM) / Percentage inhibition of ligand binding, Adrenergic α1B: 0.1 µM
T1 construct: rat adrenergic α1B receptor obtained from Wistar Rat liver; from tissue; host or cells: Wistar rat liver
T1 sequence (P15823 1-515): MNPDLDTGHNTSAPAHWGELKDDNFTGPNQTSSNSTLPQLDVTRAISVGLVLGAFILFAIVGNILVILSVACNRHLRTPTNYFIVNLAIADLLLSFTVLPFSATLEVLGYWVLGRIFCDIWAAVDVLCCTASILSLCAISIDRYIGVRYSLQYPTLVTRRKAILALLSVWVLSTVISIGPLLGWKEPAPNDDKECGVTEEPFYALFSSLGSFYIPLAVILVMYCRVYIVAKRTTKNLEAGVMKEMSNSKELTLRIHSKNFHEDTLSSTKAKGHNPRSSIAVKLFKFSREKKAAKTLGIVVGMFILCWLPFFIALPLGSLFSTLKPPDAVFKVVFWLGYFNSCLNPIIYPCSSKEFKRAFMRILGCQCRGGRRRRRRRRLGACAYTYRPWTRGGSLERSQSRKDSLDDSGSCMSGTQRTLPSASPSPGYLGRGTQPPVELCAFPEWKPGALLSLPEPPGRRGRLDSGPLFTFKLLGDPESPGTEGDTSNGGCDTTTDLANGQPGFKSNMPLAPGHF
Procedure, shortened: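 Filter binding with Wistar rat liver α1B preparation: test compound plus 0.25 nM [3H]prazosin, 1 h at 25° C in modified Tris-HCl buffer pH 7.4.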

[2] = molecular target: T2, human recombinant adrenergic α2A receptor (Homo sapiens, UniProt P08913); experiment: Radioligand binding, adrenergic α2A ([3H]MK-912); conditions: for Percentage inhibition of ligand binding, Adrenergic α2A (0.1 μM) / Percentage inhibition of ligand binding, Adrenergic α2A: 0.1 µM
T2 construct: expressed in transfected cells; host or cells: insect Sf9 cells
T2 sequence (P08913 1-465): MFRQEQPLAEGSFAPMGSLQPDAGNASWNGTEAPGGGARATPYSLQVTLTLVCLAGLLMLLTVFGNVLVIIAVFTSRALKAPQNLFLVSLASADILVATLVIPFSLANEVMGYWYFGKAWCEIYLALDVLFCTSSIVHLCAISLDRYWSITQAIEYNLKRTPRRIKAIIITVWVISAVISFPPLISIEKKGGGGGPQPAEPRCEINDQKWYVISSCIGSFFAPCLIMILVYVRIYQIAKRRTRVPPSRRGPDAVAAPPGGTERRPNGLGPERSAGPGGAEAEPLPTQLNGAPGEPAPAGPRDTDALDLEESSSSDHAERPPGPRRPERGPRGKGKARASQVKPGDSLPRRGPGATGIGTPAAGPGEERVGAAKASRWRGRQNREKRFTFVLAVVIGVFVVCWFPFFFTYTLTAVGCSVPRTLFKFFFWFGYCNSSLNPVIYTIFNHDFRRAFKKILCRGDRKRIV
Procedure, shortened: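 In 50 mM Tris-HCl (pH 7.4) containing 12.5 mM MgCl2 and 2 mM EDTA, Sf9-expressed receptor was exposed to test compound plus 1 nM [3H]MK-912 at 25 °C for 60 min. Specific binding, corrected using 10 μM WB-4101, was quantified by filtration and counting and expressed as percent inhibition.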

[3] = molecular target: T3, human recombinant adrenergic α2B receptor (Homo sapiens, UniProt P18089); experiment: Radioligand binding, adrenergic α2B ([3H]Rauwolscine); conditions: for Percentage inhibition of ligand binding, Adrenergic α2B (0.03 μM) / Percentage inhibition of ligand binding, Adrenergic α2B: 0.03 µM
T3 construct: expressed in transfected cells; host or cells: CHO-K1
T3 sequence (P18089 1-450): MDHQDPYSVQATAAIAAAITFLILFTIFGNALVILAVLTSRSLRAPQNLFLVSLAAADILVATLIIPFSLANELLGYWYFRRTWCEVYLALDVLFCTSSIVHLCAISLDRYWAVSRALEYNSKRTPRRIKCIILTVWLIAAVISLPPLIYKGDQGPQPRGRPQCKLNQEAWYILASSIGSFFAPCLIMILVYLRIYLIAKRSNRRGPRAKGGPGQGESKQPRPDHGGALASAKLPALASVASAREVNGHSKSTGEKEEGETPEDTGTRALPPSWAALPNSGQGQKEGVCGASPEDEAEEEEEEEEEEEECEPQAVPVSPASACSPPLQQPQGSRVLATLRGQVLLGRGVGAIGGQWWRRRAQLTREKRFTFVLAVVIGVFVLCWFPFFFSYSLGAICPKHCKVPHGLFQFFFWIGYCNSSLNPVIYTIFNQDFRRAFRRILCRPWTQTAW
Procedure, shortened: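 Values are percent inhibition of specific radioligand binding. The receptor, expressed in CHO-K1 cells, was exposed to 2.5 nM [3H]Rauwolscine at 25° C for 60 min, with 10 μM Prazosin marking non-specific binding.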

[4] = compound at 0.1 μM, [3H]Prazosin, repeat datapoints each shown
[5] = compound at 0.1 μM, [3H]MK-912, repeat datapoints each shown
[6] = compound at 0.03 μM, [3H]Rauwolscine, repeat datapoints each shown
[7] = compound at 0.1 μM, [3H]Prazosin, repeat assays, each datapoint shown, read-out: Percentage inhibition of ligand binding, Adrenergic α1B
[8] = compound at 0.1 μM, [3H]MK-912, repeat assays, each datapoint shown, read-out: Percentage inhibition of ligand binding, Adrenergic α2A
[9] = compound at 0.03 μM, [3H]Rauwolscine, repeat assays, each datapoint shown, read-out: Percentage inhibition of ligand binding, Adrenergic α2B
[10] = compound at 0.03 μM, [3H]Rauwolscine, repeat assays, each datapoint shown
[11] = read-out: Percentage inhibition of ligand binding, Adrenergic α2B (0.03 μM), compound at 0.03 μM, [3H]Rauwolscine, repeat datapoints each shown
[12] = compound at 0.1 μM, [3H]MK-912, repeat assays, each datapoint shown
[13] = compound at 0.1 μM, [3H]Prazosin, repeat assays, each datapoint shown
[14] = read-out: Percentage inhibition of ligand binding, Adrenergic α1B (0.1 μM), compound at 0.1 μM, [3H]Prazosin, repeat datapoints each shown
[15] = read-out: Percentage inhibition of ligand binding, Adrenergic α2A (0.1 μM), compound at 0.1 μM, [3H]MK-912, repeat datapoints each shown

Cc1cc2c3c(n(CC(C)(O)c4cccnc4)c2cc1Cl)CCN(C)C3 (single isomer, unassigned) [II-123b, 1-(7-chloro-2,8-dimethyl-3,4-dihydro-1H-pyrido[4,3-b]indol-5(2H)-yl)-2-(pyridin-3-yl)propan-2-ol]
Percentage inhibition of ligand binding, Adrenergic α1B (0.1 μM) [1, 4]: 61%
Percentage inhibition of ligand binding, Adrenergic α2A (0.1 μM) [2, 5]: 75%
Percentage inhibition of ligand binding, Adrenergic α2B (0.03 μM) [3, 6]: 93%

Cc1ccc2c(c1)c1c(n2CC(=O)c2cc[n+]([O-])cc2)CCN(C)C1 [compound 68]
inhibition at 0.1 µM [1, 7]: 2%
inhibition at 0.1 µM [2, 8]: 1%
inhibition at 0.03 µM [3, 9]: 4%

CN1CCc2c(c3ccc(Cl)cc3n2CC(O)c2ccncc2)C1 (single isomer, unassigned) [53a, 2-(7-chloro-2-methyl-3,4-dihydro-1H-pyrido[4,3-b]indol-5(2H)-yl)-1-(pyridin-4-yl)ethanol]
inhibition at 0.1 µM [1, 7]: 12%
inhibition at 0.1 µM [2, 8]: 10%
Percentage inhibition of ligand binding, Adrenergic α2B [3, 10]: 37%

Cc1cnc2c(c1)c1c(n2CCc2cnc(C)nc2)CCN2CCCC12 (single isomer, unassigned) [IV-93a]
Percentage inhibition of ligand binding, Adrenergic α1B (0.1 μM) [1, 4]: 7%
Percentage inhibition of ligand binding, Adrenergic α2A (0.1 μM) [2, 5]: 18%
inhibition at 0.03 µM [3, 11]: 52%

Cc1ccc2c(c1)c1c(n2CC(O)c2ccccc2F)CN(C)CC1 (single isomer, unassigned) [II-49b, 2-(2,6-dimethyl-3,4-dihydro-1H-pyrido[3,4-b]indol-9(2H)-yl)-1-(2-fluorophenyl)ethanol]
Percentage inhibition of ligand binding, Adrenergic α1B ([1]; 0.1 μM compound): 69%
Percentage inhibition of ligand binding, Adrenergic α2A ([2]; 0.1 μM compound): 18%
Percentage inhibition of ligand binding, Adrenergic α2B ([3]; 0.03 μM compound): 50%

CN1CCc2c(c3cc(C(F)(F)F)ccc3n2CC(O)c2ccncc2)C1 (stereo not shown) [compound 6, 2-(2-methyl-8-(trifluoromethyl)-3,4-dihydro-1H-pyrido[4,3-b]indol-5(2H)-yl)-1-(pyridin-4-yl)ethanol]
inhibition at 0.1 µM [1, 7]: 8%
inhibition at 0.1 µM [2, 8]: 2%
inhibition at 0.03 µM [3, 9]: 62%

Cc1cc(C)c2c(c1)c1c(n2CC(O)c2ccncc2)CCN2CCCC12 (single isomer, unassigned) [II-125c, 2-(8,10-dimethyl-2,3,5,6-tetrahydro-1H-indolizino[7,8-b]indol-7(11cH)-yl)-1-(pyridin-4-yl)ethanol]
Percentage inhibition of ligand binding, Adrenergic α1B (0.1 μM) [1, 4]: 42%
Percentage inhibition of ligand binding, Adrenergic α2A (0.1 μM) [2, 5]: 9%
Percentage inhibition of ligand binding, Adrenergic α2B (0.03 μM) [3, 6]: 67%

CCC1c2c(c3cc(C)ccc3n2CC(O)c2ccncc2)C2CCN1C2 (single isomer, unassigned) [36a]
inhibition at 0.1 µM [1, 7]: 14%
Percentage inhibition of ligand binding, Adrenergic α2A [2, 12]: 8%
Percentage inhibition of ligand binding, Adrenergic α2B [3, 10]: 33%

CN1CCc2c(c3cc(Cl)ccc3n2CC(O)c2cccnc2)C1 (single isomer, unassigned) [7a]
Percentage inhibition of ligand binding, Adrenergic α1B [1, 13]: 28%
Percentage inhibition of ligand binding, Adrenergic α2A [2, 12]: 1%
Percentage inhibition of ligand binding, Adrenergic α2B [3, 10]: 59%

CC(O)(Cn1c2c(c3cc(Cl)ccc31)C1CCCN1CC2)c1cccnc1 (single isomer, unassigned) [II-130a, 1-(10-chloro-2,3,5,6-tetrahydro-1H-indolizino[7,8-b]indol-7(11cH)-yl)-2-(pyridin-3-yl)propan-2-ol]
Percentage inhibition of ligand binding, Adrenergic α1B (0.1 μM) [1, 4]: 92%
Percentage inhibition of ligand binding, Adrenergic α2A (0.1 μM) [2, 5]: 86%
Percentage inhibition of ligand binding, Adrenergic α2B (0.03 μM) [3, 6]: 103%

Cc1cnc2c(c1)c1c(n2CC(C)(O)c2ccc(C)nc2)CCN2CCCC12 (single isomer, unassigned) [148b]
Percentage inhibition of ligand binding, Adrenergic α1B (0.1 μM) [1, 4]: 74%
inhibition at 0.03 µM ([1]; read-out: Percentage inhibition of ligand binding, Adrenergic α1B (0.03 μM), compound at 0.03 μM, [3H]Prazosin, repeat datapoints each shown): 35%
inhibition at 0.1 µM [1, 14]: 71%
inhibition at 0.1 µM [2, 15]: 37%
Ki ([3]; read-out: Ki α2B): 0.43 nM
inhibition at 0.03 µM [3, 11]: 105%
inhibition at 0.1 µM ([3]; read-out: Percentage inhibition of ligand binding, Adrenergic α2B (0.1 μM), compound at 0.1 μM, [3H]Rauwolscine, repeat datapoints each shown): 106%

Cc1ccc2c(c1)c1c(n2CC(CC(=O)N(C)C)c2ccncc2)CCN(C)C1 (stereo not shown) [II-230, 4-(2,8-dimethyl-1,2,3,4-tetrahydro-pyrido[4,3-b]indol-5-yl)-N,N-dimethyl-3-pyridin-4-yl-butyramide]
inhibition at 0.1 µM [1, 14]: -2%
inhibition at 0.1 µM [2, 15]: 1%
inhibition at 0.03 µM [3, 11]: 22%

Cc1ccc2c(c1)c1c(n2CC(O)c2cccnc2)CCN2CCCC12 (stereo not shown) [II-131, 2-(9-Methyl-1,2,3,4,5,10c-hexahydro-3a,6-diaza-cyclopenta[c]fluoren-6-yl)-1-pyridin-3-yl-ethanol]
inhibition at 0.1 µM [1, 14]: 90%
inhibition at 0.1 µM [2, 15]: 85%
inhibition at 0.03 µM [3, 11]: 103%

OC(Cn1c2c(c3cccnc31)CN1CCCC1C2)c1ccncc1 (single isomer, unassigned) [37d]
Percentage inhibition of ligand binding, Adrenergic α1B [1, 13]: 2%
Percentage inhibition of ligand binding, Adrenergic α2A [2, 12]: 8%
Percentage inhibition of ligand binding, Adrenergic α2B [3, 10]: −3%

C/C(=C\n1c2c(c3cc(C)ccc31)C1CCCN1CC2)c1ccc(F)cc1 (stereo not shown) [194a, 7-(2-(4-fluorophenyl)prop-1-enyl)-10-methyl-2,3,5,6,7,11c-hexahydro-1H-indolizino[7,8-b]indole]
inhibition at 0.1 µM [1, 14]: 100%
inhibition at 0.1 µM [2, 15]: 98%
inhibition at 0.03 µM [3, 11]: 106%

Cc1ccc2c(c1)c1c(n2CC(C)(O)c2ccc(F)cc2)CCN(C)C1 (single isomer, unassigned) [90a]
Percentage inhibition of ligand binding, Adrenergic α1B [1, 13]: 74%
Percentage inhibition of ligand binding, Adrenergic α2A [2, 12]: 71%
inhibition at 0.03 µM [3, 9]: 97%
